# Assay results taken from paper PMC4137556 (Biochimica et biophysica acta, 2013).
# Positions of bridges follow the written chain, without caps; N, C: chain ends. Non-standard residues stand in square brackets, D forms with d. Residues, ends and D or L forms follow the SMILES beside them. pGlu = O=C1CC[C@@H](C(=O)O)N1
# What was measured:
# [1] = tested on: chicks; experiment: Toxicity in chicks; type: in vivo; conditions: i.c.v. 60 μg/g
# [2] = tested on: neuraminidase from recombinant influenza A virus H1N1; experiment: Neuraminidase inhibition; type: biochemical; conditions: recombinant influenza A virus H1N1 enzyme; up to 50 μM
# [3] = biological target: voltage-gated Na+ (NaV1.2) channel (Homo sapiens, UniProt Q99250); experiment: Voltage-gated Na+ channel inhibition/activation; type: cell-based; conditions: ASPA administered alone, up to micromolar concentrations
# [4] = biological target: proteinase K (Parengyodontium album, UniProt P06873); experiment: Proteolytic stability against proteinase K; type: in vitro ADME; conditions: proteinase K from Tritirachium album; 50 °C, up to 48 h
# [5] = tested on: neuraminidase from Arthrobacter ureafaciens; experiment: Neuraminidase inhibition; type: biochemical; conditions: Arthrobacter ureafaciens enzyme; up to 50 μM
# [6] = tested on: veratridine binding site of the VGSC (neurotoxin site 2)
# [7] = biological target: neuraminidase from Vibrio cholera (Vibrio cholerae serotype O1, UniProt P0C6E9); experiment: Neuraminidase inhibition; type: biochemical; conditions: Vibrio cholera enzyme; up to 50 μM
# [8] = biological target: T1, neuraminidase from Micromonospora viridifaciens (Micromonospora viridifaciens, UniProt Q02834); experiment: Neuraminidase inhibition; type: biochemical; conditions: Micromonospora viridifaciens enzyme; up to 50 μM
# T1 sequence (Q02834 38-647): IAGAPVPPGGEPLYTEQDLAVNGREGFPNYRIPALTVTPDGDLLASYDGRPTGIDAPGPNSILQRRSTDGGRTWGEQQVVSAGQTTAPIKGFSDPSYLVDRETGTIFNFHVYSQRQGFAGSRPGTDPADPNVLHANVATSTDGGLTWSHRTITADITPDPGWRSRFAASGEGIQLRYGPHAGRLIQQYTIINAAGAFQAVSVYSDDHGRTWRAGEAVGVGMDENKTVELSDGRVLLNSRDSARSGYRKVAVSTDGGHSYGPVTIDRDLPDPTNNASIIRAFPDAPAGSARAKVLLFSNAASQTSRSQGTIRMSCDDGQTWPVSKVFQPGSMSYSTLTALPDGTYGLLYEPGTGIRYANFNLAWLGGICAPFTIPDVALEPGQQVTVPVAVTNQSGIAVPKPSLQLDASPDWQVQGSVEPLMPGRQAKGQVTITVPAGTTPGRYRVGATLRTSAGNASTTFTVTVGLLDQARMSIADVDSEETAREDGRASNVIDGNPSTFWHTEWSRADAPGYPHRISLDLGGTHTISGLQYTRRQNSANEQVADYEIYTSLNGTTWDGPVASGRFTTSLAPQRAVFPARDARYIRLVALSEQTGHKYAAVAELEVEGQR
# [9] = biological target: voltage-gated Ca2+ (Cav1.2) channel (Homo sapiens, UniProt Q13936); experiment: Voltage-gated Ca2+ channel inhibition/activation; type: cell-based; conditions: ASPA administered alone, up to micromolar concentrations
# [10] = tested on: mice; experiment: Toxicity in mice; type: in vivo; conditions: i.p. 40 μg/g
# [11] = biological target: T2, thermolysin (Bacillus thermoproteolyticus, UniProt P00800); experiment: Proteolytic stability against thermolysin; type: in vitro ADME; conditions: thermolysin from Bacillus thermoprotelyticus rokko; 65 °C, up to 12 h
# T2 sequence (P00800 233-548): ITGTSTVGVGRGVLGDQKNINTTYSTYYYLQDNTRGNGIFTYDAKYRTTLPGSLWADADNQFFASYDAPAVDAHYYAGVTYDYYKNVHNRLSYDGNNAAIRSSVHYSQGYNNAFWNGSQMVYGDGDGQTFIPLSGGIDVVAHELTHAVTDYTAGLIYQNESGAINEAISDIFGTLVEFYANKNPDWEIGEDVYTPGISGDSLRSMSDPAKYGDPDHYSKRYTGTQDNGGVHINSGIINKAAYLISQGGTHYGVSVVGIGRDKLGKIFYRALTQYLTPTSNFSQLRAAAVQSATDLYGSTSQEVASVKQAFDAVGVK
# [12] = tested on: murine cerebrocortical neuron cells; experiment: Effect on neuronal Ca2+ oscillations, peptide alone; type: cell-based, mouse; conditions: ASPA alone, without veratridine
# [13] = tested on: neuraminidase from Clostridium perfringens; type: biochemical
# [14] = tested on: bacterial neuraminidases; conditions: cited from earlier work
# Sequence of voltage-gated Ca2+ (Cav1.2) channel (Q13936 whole entry): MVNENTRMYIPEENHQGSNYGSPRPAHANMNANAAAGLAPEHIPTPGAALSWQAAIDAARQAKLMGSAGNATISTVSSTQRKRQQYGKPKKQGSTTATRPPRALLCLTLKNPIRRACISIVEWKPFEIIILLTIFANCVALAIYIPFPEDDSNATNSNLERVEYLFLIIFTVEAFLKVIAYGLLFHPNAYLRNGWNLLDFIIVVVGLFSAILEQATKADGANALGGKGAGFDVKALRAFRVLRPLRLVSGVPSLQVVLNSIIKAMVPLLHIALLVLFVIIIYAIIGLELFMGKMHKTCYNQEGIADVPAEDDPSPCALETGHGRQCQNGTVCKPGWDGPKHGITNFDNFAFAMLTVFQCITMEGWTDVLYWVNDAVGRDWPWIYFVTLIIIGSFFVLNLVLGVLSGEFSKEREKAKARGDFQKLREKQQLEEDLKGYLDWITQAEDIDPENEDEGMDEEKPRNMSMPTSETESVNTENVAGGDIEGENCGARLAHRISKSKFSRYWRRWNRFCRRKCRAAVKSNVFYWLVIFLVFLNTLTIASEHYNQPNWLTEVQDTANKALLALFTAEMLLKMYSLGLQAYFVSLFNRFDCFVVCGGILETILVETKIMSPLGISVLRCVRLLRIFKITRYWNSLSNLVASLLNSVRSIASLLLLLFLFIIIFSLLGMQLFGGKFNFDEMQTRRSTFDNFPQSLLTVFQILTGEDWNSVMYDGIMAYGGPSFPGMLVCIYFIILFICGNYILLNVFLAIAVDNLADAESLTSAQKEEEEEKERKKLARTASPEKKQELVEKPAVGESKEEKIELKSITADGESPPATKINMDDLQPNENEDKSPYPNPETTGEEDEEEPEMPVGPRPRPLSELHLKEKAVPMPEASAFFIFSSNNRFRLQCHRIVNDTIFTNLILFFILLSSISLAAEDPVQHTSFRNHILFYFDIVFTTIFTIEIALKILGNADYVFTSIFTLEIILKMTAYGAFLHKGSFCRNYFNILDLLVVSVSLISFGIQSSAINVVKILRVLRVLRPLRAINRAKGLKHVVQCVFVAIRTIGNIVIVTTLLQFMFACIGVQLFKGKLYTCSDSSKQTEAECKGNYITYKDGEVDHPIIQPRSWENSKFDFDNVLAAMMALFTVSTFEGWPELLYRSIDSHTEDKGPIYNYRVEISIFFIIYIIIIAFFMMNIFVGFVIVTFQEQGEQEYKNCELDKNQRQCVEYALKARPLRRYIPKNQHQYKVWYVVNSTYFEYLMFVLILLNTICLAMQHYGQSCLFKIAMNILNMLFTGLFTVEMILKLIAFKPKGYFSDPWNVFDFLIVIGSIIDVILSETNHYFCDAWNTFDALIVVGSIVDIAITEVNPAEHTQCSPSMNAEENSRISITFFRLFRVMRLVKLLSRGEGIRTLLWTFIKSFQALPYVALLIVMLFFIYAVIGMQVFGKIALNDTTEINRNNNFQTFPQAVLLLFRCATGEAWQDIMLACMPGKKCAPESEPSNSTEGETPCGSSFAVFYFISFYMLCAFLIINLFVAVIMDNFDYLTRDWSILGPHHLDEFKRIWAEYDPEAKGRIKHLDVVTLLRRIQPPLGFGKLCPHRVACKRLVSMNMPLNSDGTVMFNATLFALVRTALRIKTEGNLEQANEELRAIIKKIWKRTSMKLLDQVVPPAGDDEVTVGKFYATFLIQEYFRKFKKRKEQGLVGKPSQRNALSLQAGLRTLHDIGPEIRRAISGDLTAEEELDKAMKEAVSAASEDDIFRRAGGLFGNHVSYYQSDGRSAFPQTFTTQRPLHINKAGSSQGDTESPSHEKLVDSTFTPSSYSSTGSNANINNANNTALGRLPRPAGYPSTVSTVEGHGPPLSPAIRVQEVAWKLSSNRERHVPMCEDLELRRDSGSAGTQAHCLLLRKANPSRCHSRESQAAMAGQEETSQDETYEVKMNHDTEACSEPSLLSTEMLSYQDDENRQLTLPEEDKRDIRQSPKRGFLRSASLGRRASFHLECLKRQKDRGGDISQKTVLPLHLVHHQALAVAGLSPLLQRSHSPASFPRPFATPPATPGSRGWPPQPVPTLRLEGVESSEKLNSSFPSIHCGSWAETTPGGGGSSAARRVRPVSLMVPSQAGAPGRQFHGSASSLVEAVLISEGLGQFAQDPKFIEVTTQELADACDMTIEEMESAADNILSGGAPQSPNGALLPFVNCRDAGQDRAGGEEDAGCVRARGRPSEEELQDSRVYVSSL
# Sequence of voltage-gated Na+ (NaV1.2) channel (Q99250 whole entry): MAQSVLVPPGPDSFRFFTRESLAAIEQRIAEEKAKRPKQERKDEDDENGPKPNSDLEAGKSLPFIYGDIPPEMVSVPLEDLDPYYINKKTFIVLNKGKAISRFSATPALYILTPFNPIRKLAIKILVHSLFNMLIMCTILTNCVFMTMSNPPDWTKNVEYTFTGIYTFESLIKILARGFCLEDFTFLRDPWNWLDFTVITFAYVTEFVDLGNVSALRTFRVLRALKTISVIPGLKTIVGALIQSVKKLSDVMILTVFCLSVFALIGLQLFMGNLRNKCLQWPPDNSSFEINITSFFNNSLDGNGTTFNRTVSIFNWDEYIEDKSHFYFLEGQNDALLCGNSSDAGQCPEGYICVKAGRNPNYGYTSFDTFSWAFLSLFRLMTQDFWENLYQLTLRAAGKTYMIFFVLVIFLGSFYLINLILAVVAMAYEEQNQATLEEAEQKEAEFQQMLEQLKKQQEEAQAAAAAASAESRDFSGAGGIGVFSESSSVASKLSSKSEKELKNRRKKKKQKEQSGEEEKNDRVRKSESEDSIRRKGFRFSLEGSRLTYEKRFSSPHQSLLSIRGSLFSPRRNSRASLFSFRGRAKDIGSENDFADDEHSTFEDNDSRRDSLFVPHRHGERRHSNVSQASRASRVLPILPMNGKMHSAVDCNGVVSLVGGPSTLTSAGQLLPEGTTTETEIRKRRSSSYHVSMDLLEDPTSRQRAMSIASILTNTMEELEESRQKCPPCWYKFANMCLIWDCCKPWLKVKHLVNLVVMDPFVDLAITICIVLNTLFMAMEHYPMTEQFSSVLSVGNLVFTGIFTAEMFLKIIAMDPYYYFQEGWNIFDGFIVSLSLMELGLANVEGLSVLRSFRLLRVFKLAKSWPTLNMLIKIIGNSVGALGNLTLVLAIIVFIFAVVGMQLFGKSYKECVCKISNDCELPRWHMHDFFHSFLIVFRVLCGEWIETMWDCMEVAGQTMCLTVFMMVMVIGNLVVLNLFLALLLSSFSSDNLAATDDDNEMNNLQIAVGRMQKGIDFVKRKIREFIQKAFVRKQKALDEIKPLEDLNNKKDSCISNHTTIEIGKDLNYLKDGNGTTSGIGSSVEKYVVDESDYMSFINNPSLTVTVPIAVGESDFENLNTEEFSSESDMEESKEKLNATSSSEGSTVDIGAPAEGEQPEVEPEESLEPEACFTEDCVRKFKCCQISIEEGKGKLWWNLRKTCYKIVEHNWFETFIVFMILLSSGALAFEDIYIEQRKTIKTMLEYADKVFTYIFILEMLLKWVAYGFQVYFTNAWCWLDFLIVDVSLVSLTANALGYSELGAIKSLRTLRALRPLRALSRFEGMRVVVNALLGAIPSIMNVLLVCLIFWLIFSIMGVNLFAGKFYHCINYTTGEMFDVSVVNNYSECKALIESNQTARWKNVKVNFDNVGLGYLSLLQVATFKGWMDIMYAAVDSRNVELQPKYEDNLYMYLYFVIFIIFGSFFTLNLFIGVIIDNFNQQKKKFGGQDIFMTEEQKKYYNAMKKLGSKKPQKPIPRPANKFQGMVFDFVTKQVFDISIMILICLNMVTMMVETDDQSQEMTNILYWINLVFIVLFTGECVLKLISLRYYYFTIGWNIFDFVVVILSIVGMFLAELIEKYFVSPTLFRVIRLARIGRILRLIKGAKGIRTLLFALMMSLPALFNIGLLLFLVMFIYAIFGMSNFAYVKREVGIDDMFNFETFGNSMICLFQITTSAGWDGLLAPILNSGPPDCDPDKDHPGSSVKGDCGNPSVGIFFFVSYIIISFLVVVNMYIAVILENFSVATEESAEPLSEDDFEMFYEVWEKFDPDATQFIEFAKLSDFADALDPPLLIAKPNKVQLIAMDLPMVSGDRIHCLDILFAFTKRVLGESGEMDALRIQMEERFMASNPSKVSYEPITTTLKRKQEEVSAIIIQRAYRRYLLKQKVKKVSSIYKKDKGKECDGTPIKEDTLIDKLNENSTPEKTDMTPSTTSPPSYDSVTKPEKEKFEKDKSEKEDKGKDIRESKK
# Sequence of proteinase K (P06873 106-384): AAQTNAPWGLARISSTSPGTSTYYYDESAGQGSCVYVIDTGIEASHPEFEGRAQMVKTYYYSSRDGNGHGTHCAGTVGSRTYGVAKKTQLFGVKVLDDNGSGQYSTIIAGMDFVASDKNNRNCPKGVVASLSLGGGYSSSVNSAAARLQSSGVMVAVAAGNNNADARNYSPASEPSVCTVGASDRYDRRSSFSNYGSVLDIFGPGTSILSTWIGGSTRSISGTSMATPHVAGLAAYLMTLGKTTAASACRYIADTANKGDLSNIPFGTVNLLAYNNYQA
Compound,Toxicity or behavior changes [1],Neuraminidase inhibition [2],Inhibition or activation of NaV1.2 [3],Proteolytic stability against proteinase K [4],Neuraminidase inhibition [5],Allosteric interaction with the veratridine binding site of the VGSC [6],Neuraminidase inhibition [7],Neuraminidase inhibition [8],Inhibition or activation of Cav1.2 [9],Toxicity or behavior changes [10],Proteolytic stability against thermolysin [11],Effect on oscillation frequency or amplitude of neuronal Ca2+ currents [12],Neuraminidase inhibition [13],Inhibition of bacterial neuraminidases [14]
"CC[C@H](C)[C@@H]1NC(=O)[C@@H]2CSSC[C@@H]3NC(=O)[C@H](CO)NC(=O)[C@H](CCC(=O)O)NC(=O)CNC(=O)[C@H](CCC(=O)O)NC(=O)[C@H](Cc4ccccc4)NC(=O)[C@H](C)NC(=O)[C@@H](NC(=O)CNC(=O)[C@@H]4CCC(=O)N4)CSSC[C@H](NC(=O)[C@H](CSSC[C@@H](C(=O)N[C@@H](Cc4ccc(O)cc4)C(=O)N[C@@H](Cc4ccc(O)cc4)C(=O)N[C@@H](CC(C)C)C(=O)O)NC(=O)[C@H]([C@@H](C)O)NC(=O)CNC(=O)[C@H](CC(=O)O)NC(=O)[C@@H]4CCCN4C(=O)[C@H](CC(N)=O)NC(=O)CNC(=O)[C@@H]4CCCN4C1=O)NC(=O)[C@@H]1CCCN1C(=O)[C@H](Cc1ccc(O)cc1)NC(=O)[C@H](Cc1ccccc1)NC(=O)[C@H](CCC(N)=O)NC(=O)[C@H](C(C)C)NC(=O)[C@H](CC(N)=O)NC3=O)C(=O)N1CCC[C@H]1C(=O)NCC(=O)N[C@@H](CC(C)C)C(=O)NCC(=O)N[C@@H](CC(C)C)C(=O)N[C@@H]([C@@H](C)O)C(=O)N2 [ASPA, Asteropsin A] ([pGlu]GCAFEGESCNVQFYPCCPGLGLTCIPGNPDGTCYYL-OH; disulfide 3-18, 10-25, 17-34; C-terminus assumed)",no toxicity or behavior changes were observed,no inhibition,Neither the inhibition nor the activation,extraordinary proteolytic stability,no inhibition,not observed,no inhibition,no inhibition,Neither the inhibition nor the activation,no toxicity or behavior changes were observed,extraordinary proteolytic stability,did not modify,no inhibition,–
asteropine A [APA],–,–,–,–,–,–,–,–,–,–,–,–,–,potent competitive inhibitor
